Measurements reported in PubChem BioAssay AID1259407 (Chemical Carcinogenesis Research Information System (CCRIS), 2018).
The source made the active and inactive calls. No rule for the calls is given here.

Test system: CCRIS mutagenicity, Ames/micronucleus/aberration tests
Experiment: CCRIS mutagenicity studies
Conditions: Test System: AMES SALMONELLA TYPHIMURIUM

Measured: mutagenic call

Oc1ccc(Cl)c(Cl)c1
inactive: Strain/Indicator: TA98, Metabolic Activation: HAMSTER, LIVER, S-9, AROCLOR 1254, Method: PREINCUBATION inactive; negative | Strain/Indicator: TA98, Metabolic Activation: NONE, Method: PREINCUBATION inactive; negative | Strain/Indicator: TA98, Metabolic Activation: RAT, LIVER, S-9, AROCLOR 1254, Method: PREINCUBATION inactive; negative | Strain/Indicator: TA100, Metabolic Activation: HAMSTER, LIVER, S-9, AROCLOR 1254, Method: PREINCUBATION inactive; negative | Strain/Indicator: TA100, Metabolic Activation: NONE, Method: PREINCUBATION inactive; negative | Strain/Indicator: TA100, Metabolic Activation: RAT, LIVER, S-9, AROCLOR 1254, Method: PREINCUBATION inactive; negative | Strain/Indicator: TA1535, Metabolic Activation: HAMSTER, LIVER, S-9, AROCLOR 1254, Method: PREINCUBATION inactive; negative | Strain/Indicator: TA1535, Metabolic Activation: NONE, Method: PREINCUBATION inactive; negative | Strain/Indicator: TA1535, Metabolic Activation: RAT, LIVER, S-9, AROCLOR 1254, Method: PREINCUBATION inactive; negative | Strain/Indicator: TA1537, Metabolic Activation: HAMSTER, LIVER, S-9, AROCLOR 1254, Method: PREINCUBATION inactive; negative | Strain/Indicator: TA1537, Metabolic Activation: NONE, Method: PREINCUBATION inactive; negative | Strain/Indicator: TA1537, Metabolic Activation: RAT, LIVER, S-9, AROCLOR 1254, Method: PREINCUBATION inactive; negative

C=CC(=O)OCCCCC
inactive: Strain/Indicator: TA98, Metabolic Activation: NONE, Method: STANDARD PLATE inactive; negative | Strain/Indicator: TA98, Metabolic Activation: RAT, LIVER, S-9, AROCLOR 1254, Method: STANDARD PLATE inactive; negative | Strain/Indicator: TA98, Metabolic Activation: RAT, LIVER, S-9, SODIUM PHENOBARBITAL, Method: STANDARD PLATE inactive; negative | Strain/Indicator: TA100, Metabolic Activation: NONE, Method: STANDARD PLATE inactive; negative | Strain/Indicator: TA100, Metabolic Activation: RAT, LIVER, S-9, AROCLOR 1254, Method: STANDARD PLATE inactive; negative | Strain/Indicator: TA100, Metabolic Activation: RAT, LIVER, S-9, SODIUM PHENOBARBITAL, Method: STANDARD PLATE inactive; negative | Strain/Indicator: TA1535, Metabolic Activation: NONE, Method: STANDARD PLATE inactive; negative | Strain/Indicator: TA1535, Metabolic Activation: RAT, LIVER, S-9, AROCLOR 1254, Method: STANDARD PLATE inactive; negative | Strain/Indicator: TA1535, Metabolic Activation: RAT, LIVER, S-9, SODIUM PHENOBARBITAL, Method: STANDARD PLATE inactive; negative | Strain/Indicator: TA1537, Metabolic Activation: NONE, Method: STANDARD PLATE inactive; negative | Strain/Indicator: TA1537, Metabolic Activation: RAT, LIVER, S-9, AROCLOR 1254, Method: STANDARD PLATE inactive; negative | Strain/Indicator: TA1537, Metabolic Activation: RAT, LIVER, S-9, SODIUM PHENOBARBITAL, Method: STANDARD PLATE inactive; negative | Strain/Indicator: TA1538, Metabolic Activation: NONE, Method: STANDARD PLATE inactive; negative | Strain/Indicator: TA1538, Metabolic Activation: RAT, LIVER, S-9, AROCLOR 1254, Method: STANDARD PLATE inactive; negative | Strain/Indicator: TA1538, Metabolic Activation: RAT, LIVER, S-9, SODIUM PHENOBARBITAL, Method: STANDARD PLATE inactive; negative
